Key:
in vitro [1] = test: in vitro
Description: The objective of this study was to determine the stability of curcumin in human liver microsomes in the absence and presence of xanthohumol at a concentration of 10 μM, which is 10 fold higher than the previous study.
The objective of this study was to determine the stability of curcumin in human liver microsomes in the absence and presence of 10 μM xanthohumol.
(§1) Mixed-gender human liver microsomes (Lot #1210347) were purchased from XenoTech. The reaction mixture, minus cofactors, was prepared as described below. The test article was added into the reaction mixture at a final concentration of 1 μM. A second experiment was also performed with 10 μM xanthohumol also present in the reaction mixture. The control compounds, testosterone and 7-hydroxycoumarin (7-HC), were run simultaneously with the test article in separate reactions. An aliquot of the reaction mixture (without cofactors) was equilibrated in a shaking water bath at 37° C. for 3 minutes. The reaction was initiated by the addition of cofactors, and the mixture was incubated in a shaking water bath at 37° C. Aliquots (100 μL) were withdrawn at 0, 10, 20, 30, and 60 minutes for the test article and 0, 10, 30, and 60 minutes for testosterone and 7-HC. All samples were immediately combined with 400 μL of ice-cold 50/50 acetonitrile/H2O containing 0.1% formic acid and internal standard to terminate the reaction. The samples were then mixed and centrifuged to precipitate proteins. All samples were assayed by LC-MS/MS using electrospray ionization. Analytical conditions are outlined in Appendix 1. The peak area response ratio (PARR) to internal standard was compared to the PARR at time 0 to determine the percent remaining at each time point. Half-lives were calculated using GraphPad software, fitting to a single-phase exponential decay equation.

in vitro [2] = details: both
Description: The objective of this study was to determine the stability of curcumin in human liver microsomes in the absence and presence of xanthohumol at a concentration of 1 μM.
as §1, with “μM.” for “μM. A”, “with 1” for “with 10”

[3] = both, human, microsomes, Half-life

O=c1ccc2ccc(O)cc2o1 [7-HC, 7-hydroxycoumarin]
microsomal CLint (in vitro [1]; both, human, microsomes, CLint): 120 µL/min/mg | half-life (in vitro [1]; [3]): 12 min | half-life (in vitro [2]; human, microsomes): 10 min | microsomal CLint (in vitro [2]; human, microsomes): 136 µL/min/mg

COc1cc(C=CC(=O)CC(=O)C=Cc2ccc(O)c(OC)c2)ccc1O [Curcumin, 1,7-Bis(4-hydroxy-3-methoxyphenyl)-1,6-heptadiene-3,5-dione]
half-life (in vitro [1]; both, human, microsomes, 1 μM): < 10 min | microsomal CLint at 1 μM (in vitro [1]; both, human, microsomes, CLint): > 139 µL/min/mg | microsomal CLint at 1 μM (in vitro [1]; both, human, microsomes, CLint (value in parentheses)): 296 µL/min/mg | half-life at 1 μM (in vitro [1]; [3]): < 10 min | half-life at 1 μM (in vitro [1]; both, human, microsomes, Half-life (value in parentheses)): 4.7 min | half-life at 1 μM (in vitro [2]; human, microsomes): 4.4 min | microsomal CLint at 1 μM (in vitro [2]; human, microsomes): 313 µL/min/mg

C[C@]12CC[C@H]3[C@@H](CCC4=CC(=O)CC[C@@]43C)[C@@H]1CC[C@@H]2O [Testosterone, testosterone]
microsomal CLint (in vitro [1]; both, human, microsomes): 57.7 µL/min/mg | half-life (in vitro [1]; control compounds, human liver microsomes, separate reactions, Example 4): 24 min | microsomal CLint (in vitro [2]): 74 µL/min/mg

Source: US20170333515A1, “COMPOSITIONS AND METHODS FOR ENHANCING THE METABOLIC ACTIVITY OR STABILITY OF CURCUMIN” (priority 2015, published 2017)
